A short description of data set [1]: Pharmacokinetics of the enantiomers in humans after oral administration of ketoconazole. The following applies: following oral administration of ketoconazole (racemic). In kind it is in vivo. From the text:
Reduced hepatic exposure to the 2S,4R enantiomer may be of value in reducing the liver function abnormalities observed following administration of racemic ketoconazole.

Data set [2] is described as follows: Safety and tolerability in healthy volunteers and subjects with Type 2 Diabetes Mellitus. In kind it is in vivo, human. The following applies: 200 mg to 600 mg QD for up to 14 days and 150 mg to 450 mg for up to 4 months; healthy volunteers and T2DM subjects.
Data set [3] concerns QTc interval. The experiment in a line: QTc interval prolongation. The following applies: in vivo. From the text: The potential risk of protracted, drug induced prolongation of the QTc interval on the ECG is the development of an arrhythmia called torsade de pointes. […] Subjects with CS may have greater than normal QTc intervals and treatment that reduces cortisol levels may result in reductions in QTc intervals.

Data set [4] addresses 11-β-hydroxylase. The following applies: comparison in words; cited from earlier work.
Data set [5] addresses T1, 14-α-demethylase (Rattus norvegicus, UniProt Q64654).
T1 sequence (Q64654 1-503): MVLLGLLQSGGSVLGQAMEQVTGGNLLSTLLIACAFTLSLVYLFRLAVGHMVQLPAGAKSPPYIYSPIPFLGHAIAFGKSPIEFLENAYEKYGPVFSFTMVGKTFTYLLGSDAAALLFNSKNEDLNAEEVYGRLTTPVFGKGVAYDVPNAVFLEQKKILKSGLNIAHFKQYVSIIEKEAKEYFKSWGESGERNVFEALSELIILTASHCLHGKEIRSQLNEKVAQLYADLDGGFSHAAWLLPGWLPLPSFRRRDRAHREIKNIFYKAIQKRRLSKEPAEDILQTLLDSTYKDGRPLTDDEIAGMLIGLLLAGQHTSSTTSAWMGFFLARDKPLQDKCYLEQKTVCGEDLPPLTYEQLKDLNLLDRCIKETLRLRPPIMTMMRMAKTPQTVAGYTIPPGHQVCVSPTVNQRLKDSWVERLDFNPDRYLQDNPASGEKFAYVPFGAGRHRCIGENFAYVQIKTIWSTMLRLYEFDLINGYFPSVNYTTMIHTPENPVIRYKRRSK
To be noted: comparison in words; cited from earlier work.

The subject of data set [6] is corticosterone. The following applies: rats; vs the other enantiomers or racemic ketoconazole; cited from earlier work.
In data set [7] the test system is cholesterol. The following applies: vs the other enantiomer; cited from earlier work.
The test system of data set [8] is C-reactive protein (CRP). The following applies: clinical study; cited from earlier work.
Data set [9] concerns Cushing's syndrome. To be noted: off-label, titrated to effect; cited from earlier work.

With `CC(=O)N1CCN(c2ccc(OC[C@@H]3CO[C@@](Cn4ccnc4)(c4ccc(Cl)cc4Cl)O3)cc2)CC1` (racemic) [2S,4R ketoconazole enantiomer], the “blood concentrations of the 2S,4R enantiomer exceed those of the 2R,4S enantiomer” value in data set [1] is on record as “approximately 3 fold”. For the same compound, the safety and tolerability entry in data set [2] was “generally safe and well tolerated”. In addition, the “prolongation of QTc intervals” value in [3] is “capability to prolong QTc intervals in a dose (concentration) related manner”. Also, in data set [4], the “IC50 toward the key enzyme in cortisol synthesis (11-α-hydroxylase) compared with the other enantiomer” value is reported as “significantly lower IC50” and the “IC50 toward the key enzyme in cortisol synthesis (11-β-hydroxylase) compared with the other enantiomer” value was “significantly lower IC50”. For the same compound, the “IC50 toward a key enzyme in cholesterol synthesis (14-α-demethylase) compared with the other enantiomer” value in data set [5] is recorded as “significantly lower IC50”. The “potency with respect to reducing corticosterone” value in data set [6] is reported as “more potent”. For the same compound, the reduction of cholesterol entry in [7] was “appeared to reduce cholesterol more than the other enantiomer”. Further, in [8], the “reduction in C-reactive protein (CRP) levels” value was “dose response reduction”.

With `CC(=O)N1CCN(c2ccc(OCC3COC(Cn4ccnc4)(c4ccc(Cl)cc4Cl)O3)cc2)CC1` (racemic) [racemic ketoconazole, reference compound], the “reduction in C-reactive protein (CRP) levels” value in [8] is “no reduction”. The “therapeutic success rate in CS” value in data set [9] was 50-70%.

The values above are taken from patent publication US20190336498A1, “METHODS AND COMPOSITIONS FOR THE TREATMENT OF CUSHING'S SYNDROME USING 2S, 4R KETOCONAZOLE” (STRONGBRIDGE DUBLIN LIMITED, priority 2014, published 2019).
